# Values of other authors, collected in paper PMC3719006, “Safety, tolerability, pharmacokinetics, and pharmacodynamics of a long-acting release (LAR) formulation of pasireotide (SOM230) in patients with gastroenteropancreatic neuroendocrine tumors: results from a randomized, multicenter, open-label, phase I study” (Cancer Chemotherapy and Pharmacology, 2013).
# Assays:
# [1] = SC formulation
# [2] = system: somatostatin receptor subtypes (sst1–3,5); set-up: method as in PMID 17977644; conditions: four of the five somatostatin receptor subtypes
# sst2 receptor = system: sst2 receptor
# Source text: (§1) Somatostatin inhibits hormone release and cell growth through binding to specific, cell surface, G-protein–coupled receptors, of which five distinct subtypes (sst1–5) have been characterized. In pancreatic and gastrointestinal endocrine tumors, sst2 expression predominates, although multiple other subtypes have also been found. […] Development of the somatostatin an ...
# sst5 receptor = system: sst5 receptor
# Source text: as §1
# [3] = native somatostatin
# Description: Somatostatin inhibits hormone release and cell growth through binding to specific, cell surface, G-protein–coupled receptors, of which five distinct subtypes (sst1–5) have been characterized. In pancreatic and gastrointestinal endocrine tumors, sst2 expression predominates, although multiple other subtypes have also been found. The limited clinical use of native somatostatin, because of its very short half-life (<3 min) and the impact of rebound hypersecretion, has necessitated the development of more clinically useful analogs. Development of the somatostatin an ...
substance,measurement,setting,value
pasireotide,PK exposure difference between patients with GEP NET and healthy volunteers,[1],twofold
same,binding affinity,[2],binds with high affinity
octreotide,binding affinity,sst2 receptor,binds with high affinity
same,binding affinity,sst5 receptor,lower binding affinity
somatostatin: native hormone that inhibits hormone release and cell growth via sst1–5,half-life,[3],< 3 min
